Results: paper PMC9331544, “Molecular Physicochemical Properties of Selected Pesticides as Predictive Factors for Oxidative Stress and Apoptosis-Dependent Cell Death in Caco-2 and HepG2 Cells” (International Journal of Molecular Sciences, 2022)
“Also recorded” adds a separate entry of the source. Read-outs that look alike come from different tables or passages of the source.

Assays:
[1] = tested on: HepG2 cells; test: Apoptosis/necrosis, Annexin-V-FITC/PI double staining, flow cytometry; type: cell-based, human; conditions: HepG2, 24 h, tested concentrations; listed as IMZ
Description: (§1) The samples where then incubated for 20 min at room temperature. After this period, 5 μL of propidium iodide (PI; at 50 μg/mL) solution were added to each sample 3 min before acquisition.

[2] = tested on: Caco-2 cells; test: as above; type: cell-based, human
Description: as §1

[3] = tested on: HepG2 cells; test: Alamar Blue cell viability/cytotoxicity assay; type: cell-based, human; conditions: HepG2
Description: (§2) In this study, to assess the cytotoxic activity of GLY, IMD, and IMZ, human epithelial colorectal adenocarcinoma (Caco-2), cell lines service (CLS), (Eppelheim, Germany) and human hepatocellular carcinoma (HepG2) (ATCC, Rockville, Maryland, USA) cells were used. Cells were cultured in complete culture media (Dulbecco’s Modified Eagle Media (DMEM), supplemented with 1 mM L-glutamine, 10% (v/v) foetal bovine serum (FBS), and antibiotics (penicillin at 100 U/mL, and streptomycin at 100 μg/mL)) and maintained at 5% CO2/95% air; 37 °C, controlled humidity, in an incubator. Cells were grown in T25 culture flasks to near confluence. Then, these adherent cells were treated with trypsin (trypsin-EDTA), for detachment and subculture, which was stopped using complete culture medium (1:1, trypsin:culture media) as soon as cells were detached (about 6 and 8 minutes of trypsin treatment for HepG2 and Caco-2 cells, respectively). Detached cells were gently re-suspended with a Pasteur pipette and then a sample was counted using an automated cell counter (TC10™, BIORAD, Portugal). A suspension of cells in fresh culture media, at 5 × 10^4 cells/mL was prepared to seed into 96-well microplates (100 µL/well). After seeding, cells were placed in the incubator for 48 h (to adhere and stabilize) before being used, for other details see [66, 67].
(§3) Cell viability was assessed using the Alamar Blue® (AB) assay, after exposure to the pesticides. In summary, cells seeded into 96-well microplates were subjected to various concentrations of the pesticides (GLY: 0–1 mM; IMD: 0–1 mM; IMZ: 0–0.3 mM). To prepare the test solutions, the appropriate volume of the pesticide stock solution was diluted in FBS-free culture media just before its application to the cells. Stock solution of GLY was prepared in water (at 40 mM), and stock solutions of IMD and IMZ were prepared in DMSO (at 20 mM). After 24 h or 48 h of exposure, the test solutions were removed and the Alamar Blue solution (100 µL/well; 10% (v/v) in FBS-free medium) was immediately added to the cells, followed by a further 5 h incubation. The absorbance was then read at 570 and 620 nm using a microplate reader (Multiskan EX; MTX Lab Systems, Inc., Bradenton, FL, USA) and the percentage of the AB reduction was calculated according to the manufacturer’s instructions, as described before. Cell viability, at each condition, was calculated and expressed as percentage of control cells (non-exposed cells).
(§4) The concentrations needed to reduce cell viability by 50% (IC50) were calculated from three independent experiments (each one performed in quadruplicates), as described.

[4] = tested on: Caco-2 cells; test: Alamar Blue cell viability/cytotoxicity assay; type: cell-based, human
Description: as §2, §3, §4

[5] = Alamar Blue cell viability/cytotoxicity assay; type: cell-based, human; conditions: human, mean ± SD (n = 4), read-out: IC50 of pesticide-induced cytotoxicity
Description: as §2, §3, §4

[6] = ref [47],[48],[49],[50]; cited from earlier work

C=CCOC(Cn1ccnc1)c1ccc(Cl)cc1Cl (centres unmarked) [Imazalil, imazalil]
apoptosis/necrosis induction (in words) [1]: dose-dependently increased apoptosis; also recorded: no necrotic events recorded
apoptosis/necrosis induction (in words) ([2]; Caco-2, 24 h, tested concentrations, listed as IMZ): dose-dependent increase in late apoptosis
cells in necrosis ([2]; Caco-2, highest concentration (250 μM), 24 h, Figure 6B): ~ 23%
decrease in IC50 when doubling the exposure time (24 h to 48 h) [3]: 2 fold
IC50 for Caco-2 cells relative to HepG2 cells ([4]; 24 h exposure): 2.7 fold
IC50 for Caco-2 cells relative to HepG2 cells ([4]; 48 h exposure): 4 fold
IC50 at 24 h relative to IC50 at 48 h ([4]; Caco-2): 1.35 fold
IC50 ([4]; Caco-2, 24 h exposure, mean ± SD (n = 4), read-out: IC50 of pesticide-induced cytotoxicity): 254 ± 3 µM
IC50 at 24 h ([5]; Caco-2 cells, Caco-2, 24 h exposure): 254 ± 3.37 µM
IC50 at 48 h ([5]; Caco-2 cells, Caco-2, 48 h exposure): 187 ± 2 µM
IC50 at 24 h ([5]; HepG2 cells, HepG2, 24 h exposure): 94 ± 12 µM
IC50 at 48 h ([5]; HepG2 cells, HepG2, 48 h exposure): 47 ± 3 µM
Partition Coefficient n-octanol/water (Log Pow) [6]: 4.56
Water solubility [6]: 1.4 mg/mL
